Experimental data: US9040712B2, “Thiadiazole analogs thereof and methods for treating SMN-deficiency-related-conditions” (NOVARTIS AG, priority 2013, dated 2015)
Counter-ions that a name gives are not always drawn.

Tested on: SMN protein
Test: cellular SMN ELISA (SMN protein elevation)
Assay type: cell-based
Conditions: myoblast cell line derived from SMNdelta7 mouse model; 24 hours compound treatment; concentration range 100 pM-10 uM
Summary of the method: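 Myoblasts derived from the SMNdelta7 mouse model, 3000 cells/well, treated with compound (100 pM–10 uM) for 24 h, then lysed in modified RIPA buffer. SMN protein quantified by sandwich ELISA (anti-SMN mAb capture, rabbit polyclonal detection, HRP/TMB, 450 nm). Results given as fold activation over DMSO and EC50.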

| EC50 [nM] | SMILES | SMN Activity Fold (fold activation over DMSO control) [fold] |
| --- | --- | --- |
| 994 | CN(C)CC1CN(c2nnc(-c3ccc(-c4cn[nH]c4)cc3Cl)s2)CCO1 (stereo not drawn) [Example 82, 1-(4-(5-(2-chloro-4-(1H-pyrazol-4-yl)phenyl)-1,3,4-thiadiazol-2-yl)morpholin-2-yl)-N,N-dimethylmethanamine] | 2.50 |
| 3280 | CN1CCC2(CCCN(c3nnc(-c4ccc(-c5cn[nH]c5)cc4Cl)s3)C2)C1 (stereo not drawn) [Example 83, 2-(2-chloro-4-(1H-pyrazol-4-yl)phenyl)-5-(2-methyl-2,7-diazaspiro[4.5]decan-7-yl)-1,3,4-thiadiazole] | 2.59 |
| 193 | CN1C[C@@H]2CN(c3nnc(-c4ccc(-c5cn[nH]c5)cc4F)s3)C[C@@H]2C1 [Example 84, 2-(2-fluoro-4-(1H-pyrazol-4-yl)phenyl)-5-((3aR,6aS)-5-methylhexahydropyrrolo[3,4-c]pyrrol-2(1H)-yl)-1,3,4-thiadiazole] | 2.11 |
| 282 | COc1cc(-c2cnn(C)c2)ccc1-c1nnc(N2CC3(CCCNC3)C2)s1 [Example 85, 2-(2-methoxy-4-(1-methyl-1H-pyrazol-4-yl)phenyl)-5-(2,6-diazaspiro[3.5]nonan-2-yl)-1,3,4-thiadiazole] | 2.22 |
| 152 | COc1cc(-c2cnn(C)c2)ccc1-c1nnc(N2CC3(CCNCC3)C2)s1 [Example 86, 2-(2-methoxy-4-(1-methyl-1H-pyrazol-4-yl)phenyl)-5-(2,7-diazaspiro[3.5]nonan-2-yl)-1,3,4-thiadiazole] | 2.33 |
| 155 | Cn1cc(-c2ccc(-c3nnc(N4CC5(CCCNC5)C4)s3)c(O)c2)cn1 [Example 94, 2-(5-(2,6-diazaspiro[3.5]nonan-2-yl)-1,3,4-thiadiazol-2-yl)-5-(1-methyl-1H-pyrazol-4-yl)phenol] | 2.59 |
| 53 | Cn1cc(-c2ccc(-c3nnc(N4CC5(CCNCC5)C4)s3)c(O)c2)cn1 [Example 95, 2-(5-(2,7-diazaspiro[3.5]nonan-2-yl)-1,3,4-thiadiazol-2-yl)-5-(1-methyl-1H-pyrazol-4-yl)phenol] | 2.44 |
| 9 | Oc1cc(-c2cn[nH]c2)cc(F)c1-c1nnc(N2C[C@H]3CNC[C@H]3C2)s1 [Example 96, 3-fluoro-2-(5-((3aR,6aS)-hexahydropyrrolo[3,4-c]pyrrol-2(1H)-yl)-1,3,4-thiadiazol-2-yl)-5-(1H-pyrazol-4-yl)phenol•Di-hydrochloride salt] | 2.85 |
| 818 | COc1cc(-n2cccn2)ccc1-c1nnc(CC2CC(C)(C)NC(C)(C)C2)s1 [Example 98, 2-(2-methoxy-4-(1H-pyrazol-1-yl)phenyl)-5-((2,2,6,6-tetramethylpiperidin-4-yl)methyl)-1,3,4-thiadiazole] | 2.19 |
| 181 | Clc1cc(-c2cn[nH]c2)ccc1-c1nnc(N2C[C@H]3CNC[C@H]3C2)s1 [Example 105, 2-(2-chloro-4-(1H-pyrazol-4-yl)phenyl)-5-((3aR,6aS)-hexahydropyrrolo[3,4-c]pyrrol-2(1H)-yl)-1,3,4-thiadiazole Hydrochloride Salt] | 2.21 |
| 1660 | Clc1cc(-c2cn[nH]c2)ccc1-c1nnc(N2CCC3(CCCNC3)C2)s1 (stereo not drawn) [Example 106, 2-(2-chloro-4-(1H-pyrazol-4-yl)phenyl)-5-(2,7-diazaspiro[4.5]decan-2-yl)-1,3,4-thiadiazole•Hydrochloride Salt] | 2.50 |
| 4540 | OC[C@H]1CN(c2nnc(-c3ccc(-c4cn[nH]c4)cc3Cl)s2)CCN1 [Example 107, (R)-(4-(5-(2-chloro-4-(1H-pyrazol-4-yl)phenyl)-1,3,4-thiadiazol-2-yl)piperazin-2-yl)methanol•Hydrochloride Salt] | 2.06 |

The remaining lines, values behind:

| SMILES | EC50 [nM] | SMN Activity Fold (fold activation over DMSO control) [fold] |
| --- | --- | --- |
| CN1C[C@@H]2CN(c3nnc(-c4ccc(-c5cn[nH]c5)cc4Cl)s3)C[C@@H]2C1 [Example 80, 2-(2-chloro-4-(1H-pyrazol-4-yl)phenyl)-5-((3aR,6aS)-5-methylhexahydropyrrolo[3,4-c]pyrrol-2(1H)-yl)-1,3,4-thiadiazole] | 149 | 2.70 |
| CN1CC[C@@H]2CN(c3nnc(-c4ccc(-c5cn[nH]c5)cc4Cl)s3)C[C@@H]21 [Example 81, 2-(2-chloro-4-(1H-pyrazol-4-yl)phenyl)-5-((3aR,6aR)-1-methylhexahydropyrrolo[3,4-b]pyrrol-5(1H)-yl)-1,3,4-thiadiazole] | 1540 | 2.38 |
| CN(c1nnc(-c2ccc(-n3cccn3)cc2O)s1)C1CC(C)(C)NC(C)(C)C1 [Example 87, 2-(5-(methyl(2,2,6,6-tetramethylpiperidin-4-yl)amino)-1,3,4-thiadiazol-2-yl)-5-(1H-pyrazol-1-yl)phenol] | 171 | 2.76 |
| CN(c1nnc(-c2ccc(-c3ccc(=O)[nH]c3)cc2Cl)s1)C1CC(C)(C)NC(C)(C)C1 [Example 88, 5-(3-chloro-4-(5-(methyl(2,2,6,6-tetramethylpiperidin-4-yl)amino)-1,3,4-thiadiazol-2-yl)phenyl)pyridin-2(1H)-one] | 160 | 2.22 |
| CNc1ccn(-c2ccc(-c3nnc(N(C)C4CC(C)(C)NC(C)(C)C4)s3)c(O)c2)n1 [Example 89, 2-(5-(methyl(2,2,6,6-tetramethylpiperidin-4-yl)amino)-1,3,4-thiadiazol-2-yl)-5-(3-(methylamino)-1H-pyrazol-1-yl)phenol] | 106 | 2.85 |
| CN(c1nnc(-c2c(O)cc(-c3cn[nH]c3)cc2F)s1)C1CC(C)(C)NC(C)(C)C1 [Example 90, 3-fluoro-2-(5-(methyl(2,2,6,6-tetramethylpiperidin-4-yl)amino)-1,3,4-thiadiazol-2-yl)-5-(1H-pyrazol-4-yl)phenol] | 6 | 2.57 |
| CN(c1nnc(-c2c(O)cc(-c3cn[nH]c3)c(F)c2F)s1)C1CC(C)(C)NC(C)(C)C1 [Example 91, 3,4-difluoro-2-(5-(methyl(2,2,6,6-tetramethylpiperidin-4-yl)amino)-1,3,4-thiadiazol-2-yl)-5-(1H-pyrazol-4-yl)phenol] | – | 2.67 |
| CN(c1nnc(-c2cc3c(cc2O)C(=O)CC3)s1)C1CC(C)(C)NC(C)(C)C1 [Example 92, 6-hydroxy-5-(5-(methyl(2,2,6,6-tetramethylpiperidin-4-yl)amino)-1,3,4-thiadiazol-2-yl)-2,3-dihydro-1H-inden-1-one] | 91 | 2.50 |
| CN(c1nnc(-c2ccc(-c3cn[nH]c3)cc2O)s1)C1CC(C)(C)NC(C)(C)C1 [Example 93, 2-(5-(methyl(2,2,6,6-tetramethylpiperidin-4-yl)amino)-1,3,4-thiadiazol-2-yl)-5-(1H-pyrazol-4-yl)phenol] | 404 | 2.47 |
| CN(c1nnc(-c2c(O)cc(-c3cn[nH]c3)cc2Cl)s1)C1CC(C)(C)NC(C)(C)C1 [Example 97, 3-chloro-2-(5-(methyl(2,2,6,6-tetramethylpiperidin-4-yl)amino)-1,3,4-thiadiazol-2-yl)-5-(1H-pyrazol-4-yl)phenol] | – | 2.45 |
| COc1c(-c2nnc(N(C)C3CC(C)(C)NC(C)(C)C3)s2)c(=O)n(C)c2ccccc12 [Example 101, 4-methoxy-1-methyl-3-(5-(methyl(2,2,6,6-tetramethylpiperidin-4-yl)amino)-1,3,4-thiadiazol-2-yl)quinolin-2(1H)-one] | 742 | 2.51 |
| CN(c1nnc(-c2c(O)c3ccccc3n(C)c2=O)s1)C1CC(C)(C)NC(C)(C)C1 [Example 102, 4-hydroxy-1-methyl-3-(5-(methyl(2,2,6,6-tetramethylpiperidin-4-yl)amino)-1,3,4-thiadiazol-2-yl)quinolin-2(1H)-one] | 24 | 2.71 |
| CN(c1nnc(-c2cc3ccccc3[nH]c2=O)s1)C1CC(C)(C)NC(C)(C)C1 [Example 103, 3-(5-(methyl(2,2,6,6-tetramethylpiperidin-4-yl)amino)-1,3,4-thiadiazol-2-yl)quinolin-2(1H)-one] | 161 | 2.47 |
| CN(c1nnc(-c2cc3ccccc3n(C)c2=O)s1)C1CC(C)(C)NC(C)(C)C1 [Example 104, 1-methyl-3-(5-(methyl(2,2,6,6-tetramethylpiperidin-4-yl)amino)-1,3,4-thiadiazol-2-yl)quinolin-2(1H)-one] | 100 | 2.76 |
| CN(c1nnc(-c2cc3cc(C#N)ccc3s2)s1)C1CC(C)(C)NC(C)(C)C1 [Example 108, 2-(5-(methyl(2,2,6,6-tetramethylpiperidin-4-yl)amino)-1,3,4-thiadiazol-2-yl)benzo[b]thiophene-5-carbonitrile] | 539 | 2.72 |
| CN(c1nnc(-c2sc3ccccc3c2Cl)s1)C1CC(C)(C)NC(C)(C)C1 [Example 109, 5-(3-chlorobenzo[b]thiophen-2-yl)-N-methyl-N-(2,2,6,6-tetramethylpiperidin-4-yl)-1,3,4-thiadiazol-2-amine] | 534 | 2.75 |
